“And” between values parts separate entries of the source, which are not always exact repeats. Identical values can stand only once. Like-named read-outs stand apart in the source and are kept apart here.
Legend:
[1] = Aerodynamic particle size distribution of pMDI solution formulations by Andersen Cascade Impactor (MMAD, GSD, fine particle dose); assay type: physicochemical; details: for FPD3 < 4.7 μm*: ethanol 15%, normalized for 250 nominal dose
Experimental: The aerodynamic particle size distribution of each formulation was characterized using a Multistage Cascade Impactor according to the procedure described in the European Pharmacopoeia 2nd edition, 1995, part V.5.9.1. pages 15-17. In this specific case an Andersen Cascade Impactor (ACI) was used. Results represented were obtained from ten cumulative actuations of a formulation. Deposition of the drug on each ACI plate was determined by high pressure liquid chromatography. The mass median aerodynamic diameter (MMAD) and geometric standard deviation (GSD) were calculated from plots of the cumulative percentage undersize of drug collected on each ACI plate (probit scale), against the upper cut off diameter for each respective ACI plate (log10 scale). The fine particle dose of each formulation was determined from the mass of drug collected on Stages 3 through to Filter (<4.7 μm) divided by the number of actuations per experiment.

[2] = BDP as a solution in HFA 134a (formulations of EP 0553298), reported in literature; cited from earlier work
[3] = BDP 50 μg/shot, ethanol 13%, glycerol 1.3%, HFA 134a, chamber volume 25 μl, actuator orifice 0.25 mm
[4] = BDP 50 μg/shot, ethanol 13%, glycerol 1.3%, HFA 134a, chamber volume 25 μl, actuator orifice 0.30 mm
[5] = BDP 50 μg/shot, ethanol 13%, glycerol 1.3%, HFA 134a, chamber volume 50 μl, actuator orifice 0.30 mm
[6] = BDP 50 μg/shot, ethanol 13%, glycerol 1.3%, HFA 134a, chamber volume 100 μl, actuator orifice 0.30 mm
[7] = BDP 50 μg/shot, ethanol 13%, glycerol 1.3%, HFA 227, chamber volume 25 μl, actuator orifice 0.30 mm
[8] = BDP 50 μg/shot, ethanol 13%, glycerol 1.3%, HFA 227, chamber volume 50 μl, actuator orifice 0.30 mm
[9] = BDP 50 μg/shot, ethanol 13%, glycerol 1.3%, HFA 227, chamber volume 100 μl, actuator orifice 0.30 mm
[10] = BDP 250 μg/shot, ethanol 15% (w/w), glycerol 1.3% (w/w), actuator 0.30 mm, HFA 227/HFA 134a 0:100
[11] = BDP 250 μg/shot, ethanol 15% (w/w), glycerol 1.3% (w/w), actuator 0.30 mm, HFA 227/HFA 134a 25:75
[12] = BDP 250 μg/shot, ethanol 15% (w/w), glycerol 1.3% (w/w), actuator 0.30 mm, HFA 227/HFA 134a 50:50
[13] = BDP 250 μg/shot, ethanol 15% (w/w), glycerol 1.3% (w/w), actuator 0.30 mm, HFA 227/HFA 134a 75:25
[14] = BDP 250 μg/shot, ethanol 15% (w/w), glycerol 1.3% (w/w), actuator 0.30 mm, HFA 227/HFA 134a 100:0

FPD < 4.7 μm [1, 3]: 26.0 µg
GSD [1, 3]: 1.9
MMAD [1, 3]: 2.8 μm
Metered Dose [1, 3]: 55 µg
FPD < 4.7 μm [1, 4]: 19.2 µg
GSD [1, 4]: 2.0
MMAD [1, 4]: 2.6 μm
Metered Dose [1, 4]: 57 µg
FPD < 4.7 μm [1, 5]: 13.9 µg
GSD [1, 5]: 2.1
MMAD [1, 5]: 2.8 μm
Metered Dose [1, 5]: 49 µg
FPD < 4.7 μm [1, 6]: 11.7 µg
GSD [1, 6]: 2.2
MMAD [1, 6]: 2.7 μm
Metered Dose [1, 6]: 51 µg
FPD < 4.7 μm [1, 7]: 16.4 µg
GSD [1, 7]: 2.1
MMAD [1, 7]: 3.6 μm
Metered Dose [1, 7]: 58 µg
FPD < 4.7 μm [1, 8]: 13.1 µg
GSD [1, 8]: 2.2
MMAD [1, 8]: 3.5 μm
Metered Dose [1, 8]: 51 µg
FPD < 4.7 μm [1, 9]: 12.6 µg
GSD [1, 9]: 2.2
MMAD [1, 9]: 3.5 μm
Metered Dose [1, 9]: 49 µg
FPD [1, 10]: 27, 27%
MMAD [1, 10]: 2.8, 2.8 μm
FPD [1, 11]: 27% and 28%
MMAD [1, 11]: 3.3 μm and 3.2 μm
FPD [1, 12]: 25, 25%
MMAD [1, 12]: 3.4 μm and 3.7 μm
FPD [1, 13]: 25, 25%
MMAD [1, 13]: 3.7, 3.7 μm
FPD [1, 14]: 20% and 24%
MMAD [1, 14]: 4.2 μm and 3.9 μm and 3.8 μm
FPD3 < 4.7 μm* ([1]; BDP 250 μg/shot, glycerol 1.3%, actuator 0.30 mm, HFA 227/HFA 134a 0:100): 58 µg and 59 µg
FPD3 < 4.7 μm* ([1]; BDP 250 μg/shot, glycerol 1.3%, actuator 0.30 mm, HFA 227/HFA 134a 25:75): 60 µg and 62 µg
FPD3 < 4.7 μm* ([1]; BDP 250 μg/shot, glycerol 1.3%, actuator 0.30 mm, HFA 227/HFA 134a 50:50): 56, 56 μg
FPD3 < 4.7 μm* ([1]; BDP 250 μg/shot, glycerol 1.3%, actuator 0.30 mm, HFA 227/HFA 134a 75:25): 56 µg and 57 µg
FPD3 < 4.7 μm* ([1]; BDP 250 μg/shot, glycerol 1.3%, actuator 0.30 mm, HFA 227/HFA 134a 100:0): 47 µg and 45 µg and 50 µg
Structure (SMILES): CCC(=O)OCC(=O)[C@@]1(OC(=O)CC)[C@@H](C)C[C@H]2[C@@H]3CCC4=CC(=O)C=C[C@]4(C)[C@@]3(Cl)[C@@H](O)C[C@@]21C [BDP, beclomethasone 17,21 dipropionate]
MMAD [2]: 1.1 μm
